Target: T1, Serine racemase (Homo sapiens, UniProt Q9GZT4)
T1 sequence (Q9GZT4 whole entry): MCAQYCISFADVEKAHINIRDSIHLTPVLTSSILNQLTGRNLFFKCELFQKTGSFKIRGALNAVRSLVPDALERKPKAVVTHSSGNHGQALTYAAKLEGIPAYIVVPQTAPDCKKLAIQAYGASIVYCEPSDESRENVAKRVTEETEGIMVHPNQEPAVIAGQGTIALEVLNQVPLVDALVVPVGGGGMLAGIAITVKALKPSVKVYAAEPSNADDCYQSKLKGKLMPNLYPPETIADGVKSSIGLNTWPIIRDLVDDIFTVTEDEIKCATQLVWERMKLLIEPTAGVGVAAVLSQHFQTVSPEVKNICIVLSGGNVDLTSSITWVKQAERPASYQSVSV
Experiment: Inhibition of wild-type serine racemase (unknown origin) assessed as residual activity by measuring D-serine level using […] as substrate and PLP as co-factor pretreated for 30 mins followed by substrate and co-factor addition measured after 30 mins

IC50 | Structure (SMILES)
836 µM | COc1ccccc1SCCC(=O)OCC(=O)Nc1ccc(NC(C)=O)cc1

Target: T2, Serine racemase (Homo sapiens) (UniProt Q9GZT4)
T2 sequence (whole entry): T1 sequence (Q9GZT4 whole entry)
Experiment: Inhibition of wild-type serine racemase (unknown origin) assessed as residual activity by measuring D-serine level at 1 mM using […] as substrate and PLP as co-factor pretreated for 30 mins followed by substrate and co-factor addition measured after 30 mins relative to control

Activity | Structure (SMILES)
52% | CC(=O)Nc1ccc(NC(=O)C(C)NC(=O)CCSc2ccccc2Cl)cc1 (centres undefined)
61% | COc1cccc(SCCC(=O)OCC(=O)Nc2ccc(NC(C)=O)cc2)c1
100% | COc1ccccc1CCCC(=O)CCC(=O)Nc1ccc(NC(C)=O)cc1
76% | COc1ccccc1CCCC(=O)OCC(=O)Nc1ccc(NC(C)=O)cc1
55% | CC(=O)Nc1ccc(NC(=O)COC(=O)CCSc2ccccc2F)cc1
56% | CC(=O)c1ccc(NC(=O)NNC(=O)Cc2ccc(Cl)c(Cl)c2)cc1
100% | CC(=O)Nc1ccc(NC(=O)COC(=O)CCSc2cccc(Cl)c2)cc1
65% | COc1ccc(SCCC(=O)OCC(=O)Nc2ccc(NC(C)=O)cc2)cc1
88% | CC(=O)Nc1ccc(NC(=O)COC(=O)CCOc2ccccc2F)cc1
100% | COc1ccccc1SCCC(=O)NCC(=O)Nc1ccc(NC(C)=O)cc1
36% | COc1ccccc1SCCC(=O)OCC(=O)Nc1ccc(NC(C)=O)cc1
91% | CCc1ccccc1NC(=O)C(C)OC(=O)CCSc1ccccc1Cl (centres undefined)
84% | CC(=O)Nc1ccc(NC(=O)COC(=O)CCSc2ccccc2Cl)cc1
91% | CC(OC(=O)CCSc1ccccc1Cl)C(=O)Nc1ccccc1 (centres undefined)
100% | CC(=O)Nc1ccc(NC(=O)CNC(=O)CCSc2ccccc2Cl)cc1
72% | CC(=O)Nc1ccc(NC(=O)COC(=O)CCSc2ccccc2)cc1
49% | CC(=O)Nc1ccc(NC(=O)C(C)OC(=O)CCSc2ccccc2Cl)cc1 (centres undefined)
92% | COc1ccccc1SCCC(=O)NC(C)C(=O)Nc1ccc(NC(C)=O)cc1 (centres undefined)

— ChEMBL document CHEMBL4184097, “Design, synthesis, and evaluation of novel inhibitors for wild-type human serine racemase” (Bioorg Med Chem Lett, 2018)
